Laboratory results published in patent US9221809B2 (MERCK SHARP & DOHME CORP., priority 2011, dated 2015).
pIC50: −log10 of the molar value. Structures can show the parent of a compound that is named as a salt.

biological target: IRAK4 (Homo sapiens (Human), UniProt Q9NWZ3); assay: IRAK4 kinase activity, IMAP fluorescence polarization assay; format: biochemical; settings: 100 μM ATP, 0.5 nM GST tagged IRAK4; read-out: IRAK4 IC50
How it was run: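 GST-tagged IRAK4 at 0.5 nM phosphorylates 100 nM fluorescent peptide substrate with 100 μM ATP in pH 7.2 Tris buffer containing MgCl2, DTT and Tween 20, 30 min at 25 °C. Reaction stopped with IMAP binding reagent; phosphorylation read as increased fluorescence polarization.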

Sequence of IRAK4 (Q9NWZ3 whole entry): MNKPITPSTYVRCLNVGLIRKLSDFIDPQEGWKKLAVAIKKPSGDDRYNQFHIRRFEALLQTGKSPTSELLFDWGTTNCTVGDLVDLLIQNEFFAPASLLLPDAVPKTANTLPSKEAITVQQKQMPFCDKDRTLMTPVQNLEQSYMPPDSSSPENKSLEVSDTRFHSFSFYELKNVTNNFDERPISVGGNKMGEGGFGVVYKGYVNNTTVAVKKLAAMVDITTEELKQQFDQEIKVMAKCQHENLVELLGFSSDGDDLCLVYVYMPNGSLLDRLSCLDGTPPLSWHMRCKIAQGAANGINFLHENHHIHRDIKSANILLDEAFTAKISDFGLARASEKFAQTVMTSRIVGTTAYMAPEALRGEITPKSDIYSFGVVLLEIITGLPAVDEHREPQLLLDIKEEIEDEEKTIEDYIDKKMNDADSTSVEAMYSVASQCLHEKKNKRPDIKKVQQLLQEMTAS

**Q.** How did the pIC50 turn out when O=c1[nH]c(N2CCOCC2)nc(N[C@@H]2C[C@H](CO)[C@@H](O)[C@H]2O)c1-c1nc(-c2ccc(F)cc2)cs1 [Example 58, 6-(((1R,2S,3R,4R)-2,3-Dihydroxy-4-(hydroxymethyl)cyclopentyl)amino)-5-(4-(4-fluorophenyl)thiazol-2-yl)-2-morpholinopyrimidin-4(3H)-one.HCl] was run?
**A.** 8.25

**Q.** O=C1NCCCC[C@H]1Nc1nc(N2CCOCC2)[nH]c(=O)c1-c1nc2ccccc2s1 [Example 91, (R)-3-(5-(Benzo[d]thiazol-2-yl)-2-morpholino-6-oxo-1,6-dihydropyrimidin-4-ylamino)azepan-2-one.HCl] was tested. Which pIC50 did it give?
**A.** 5.61

**Q.** With O=c1[nH]c(OC2CCC2)nc(N[C@@H]2C[C@H](CO)[C@@H](O)[C@H]2O)c1-c1nc2ccccc2s1 [Example 15, 5-(Benzo[d]thiazol-2-yl)-2-cyclobutoxy-6-((1R,2S,3R,4R)-2,3-dihydroxy-4-(hydroxymethyl)cyclopentylamino)pyrimidin-4(3H)-one.HCl] as the compound, how does the pIC50 read?
**A.** 5.77

**Q.** How did the pIC50 turn out when O=c1[nH]c(NC2CC(F)(F)C2)nc(N[C@@H]2C[C@H](CO)[C@@H](O)[C@H]2O)c1-c1nc2ccccc2s1 [Example 9, 5-(Benzo[d]thiazol-2-yl)-2-(3,3-difluorocyclobutylamino)-6-((1R,2S,3R,4R)-2,3-dihydroxy-4-(hydroxymethyl)cyclopentylamino)pyrimidin-4(3H)-one.HCl] was run?
**A.** 6.49

**Q.** With O=c1[nH]c(N2CCOCC2)nc(N[C@H]2CNC[C@H](O)C2)c1-c1nc2ccccc2s1 [Example 105, 5-(benzo[d]thiazol-2-yl)-6-(((3R,5R)-5-hydroxypiperidin-3-yl)amino)-2-morpholinopyrimidin-4(3H)-one.HCl] as the compound, how does the pIC50 read?
**A.** 7.07

**Q.** With CS(=O)(=O)N1CCC(Nc2nc(N[C@@H]3C[C@H](CO)[C@@H](O)[C@H]3O)c(-c3nc4ccccc4s3)c(=O)[nH]2)CC1 [Example 10, 5-(Benzo[d]thiazol-2-yl)-6-((1R,2S,3R,4R)-2,3-dihydroxy-4-(hydroxymethyl)cyclopentylamino)-2-(1-(methylsulfonyl)piperidin-4-ylamino)pyrimidin-4(3H)-one.HCl] as the compound, how does the pIC50 read?
**A.** 6.26

**Q.** With Cc1csc(-c2c(N[C@@H]3C[C@H](CO)[C@@H](O)[C@H]3O)nc(N3CCC(C(F)(F)F)CC3)[nH]c2=O)n1 [Example 33, 6-(((1R,2S,3R,4R)-2,3-Dihydroxy-4-(hydroxymethyl)cyclopentyl)amino)-5-(4-methylthiazol-2-yl)-2-(4-(trifluoromethyl)piperidin-1-yl)pyrimidin-4(3H)-one.HCl] as the compound, how does the pIC50 read?
**A.** 7.03

same assay, conditions: 100 μM ATP; read-out: IC50

**Q.** How did the pIC50 turn out when O=c1[nH]c(N2CCOCC2)nc(N[C@@H]2CCCNC2)c1-c1cccc(-n2cccc2)n1 [Example 215, (R)-5-(6-(1H-pyrrol-1-yl)pyridin-2-yl)-2-morpholino-6-(piperidin-3-ylamino)pyrimidin-4(3H)-one] was run?
**A.** 6.73

**Q.** How did the pIC50 turn out when CN1CCC2(CCN(c3nc(N[C@@H]4CCCNC4)c(-c4nc5ccccc5s4)c(=O)[nH]3)C2)C1 (stereo partly drawn) [Example 325, 5-(1,3-benzothiazol-2-yl)-2-[7-methyl-2,7-diazaspiro[4.4]nonan-2-yl]-6-[[(3R)-piperidin-3-yl]amino]-3,4-dihydropyrimidin-4-one] was run?
**A.** 7.62

**Q.** O=c1[nH]c(N2CCC3(CCN(c4ncccn4)C3)C2)nc(N[C@@H]2CCCNC2)c1-c1nc2ccccc2s1 (stereo partly drawn) [Example 324, 5-(1,3-benzothiazol-2-yl)-6-[[(3R)-piperidin-3-yl]amino]-2-[7-(pyrimidin-2-yl)-2,7-diazaspiro[4.4]nonan-2-yl]-3,4-dihydropyrimidin-4-one trifluoroacetic acid] was tested. Which pIC50 did it give?
**A.** 7.92

**Q.** How did the pIC50 turn out when O=c1[nH]c(N2CCOCC2)nc(N[C@@H]2CCCNC2)c1-c1cc2ccccc2cn1 [Example 225, (R)-5-(isoquinolin-3-yl)-2-morpholino-6-(piperidin-3-ylamino)pyrimidin-4(3H)-one] was run?
**A.** 6.33

**Q.** With O=c1[nH]c(N2CCC3CCCCC3C2)nc(N[C@@H]2CCCNC2)c1-c1nc2ccccc2s1 (stereo partly drawn) [Example 313, 5-(1,3-benzothiazol-2-yl)-(decahydroisoquinolin-2-yl)-6-[[(3R)piperidin-3-yl]amino]-3,4-dihydropyrimidin-4-one; trifluoroacetic acid] as the compound, how does the pIC50 read?
**A.** 6.48

**Q.** O=c1[nH]c(C2CCN(S(=O)(=O)C3CC3)CC2)nc(N[C@@H]2CCCNC2)c1-c1nc2ccccc2s1 [Example 238, (R)-5-(1,3-benzothiazol-2-yl) 2-[1-(cyclopropane-sulfonyl)piperidin-4-yl]-6-[(piperidin-3-yl)amino]-3,4-dihydropyrimidin-4-one] was tested. Which pIC50 did it give?
**A.** 6.77

**Q.** CC(=O)NCCNc1nc(N2CCOCC2)[nH]c(=O)c1-c1nc2ccccc2s1 [Example 261, N-(2-[[5-(1,3-benzothiazol-2-yl)-2-(morpholin-4-yl)-6-oxo-1,6-dihydropyrimidin-4-yl]amino]ethyl)acetamide] was tested. Which pIC50 did it give?
**A.** 5.09

**Q.** How did the pIC50 turn out when O=c1[nH]c(N[C@H]2c3ccccc3C[C@H]2O)nc(N[C@@H]2CCCNC2)c1-c1nc2ccccc2s1 [Example 298, 5-(1,3-benzothdazol-2-yl)-2-[[(1S,2R)-2-hydroxy-2,3-dihydro-1H-inden-1-yl]amino]-6-[[(3R)-piperidin-3-yl]amino]pyrimidin-4-ol; formic acid] was run?
**A.** 5.60

**Q.** With O=c1[nH]c(N2CCC3(CCN(c4ccccc4)C3)C2)nc(N[C@@H]2CCCNC2)c1-c1nc2ccccc2s1 (stereo partly drawn) [Example 334, 5-(1,3-benzothiazol-2-yl)-2-[7-phenyl-2,7-diazaspiro[4.4]nonan-2-yl]-6-[[(3R)-piperidin-3-yl]amino]-3,4-dihydropyrimidin-4-one] as the compound, how does the pIC50 read?
**A.** 7.68

**Q.** With CC1CCCN(c2nc(N[C@@H]3CCCNC3)c(-c3nc4ccccc4s3)c(=O)[nH]2)C1 (stereo partly drawn) [Example 290, 5-(benzo[d]thiazol-2-yl)-2-(3-methylpiperidin-1-yl)-6-((R)-piperidin-3-ylamino)pyrimidin-4(3H)-one] as the compound, how does the pIC50 read?
**A.** 6.85

**Q.** O=c1[nH]c(N2CCC2)nc(N[C@@H]2CCCNC2)c1-c1nc2ccccc2s1 [Example 288, (R)-2-(azetidin-1-yl)-5-(benzo[d]thiazol-2-yl)-6-(piperidin-3-ylamino)pyrimidin-4(3H)-one] was tested. Which pIC50 did it give?
**A.** 5.70

**Q.** With O=c1[nH]c(N2CCC3(CCN(c4ccc(Cl)cc4)C3)C2)nc(N[C@@H]2CCCNC2)c1-c1nc2ccccc2s1 (stereo partly drawn) [Example 331, 5-(1,3-benzothiazol-2-yl)-2-[7-(4-chlorophenyl)-2,7-diazaspiro[4.4]nonan-2-yl]-6-[[(3R)-piperidin-3-yl]amino]-3,4-dihydropyrimidin-4-one trifluoroacetic acid] as the compound, how does the pIC50 read?
**A.** 7.33

**Q.** With CC1(Nc2nc(N3CCOCC3)[nH]c(=O)c2-c2nc3ccccc3s2)CCCNC1 (stereo not shown) [Example 248, 5-(1,3-benzothiazol-2-yl)-6-[(3-methylpiperidin-3-yl)amino]-2-(morpholin-4-yl)-3,4-dihydro-pyrimidin-4-one] as the compound, how does the pIC50 read?
**A.** 6.82

**Q.** How did the pIC50 turn out when CCOC(=O)C1CN(c2nc(N[C@@H]3CCCNC3)c(-c3nc4ccccc4s3)c(=O)[nH]2)CCO1 (stereo partly drawn) [Example 321, ethyl 4-[5-(1,3-benzothiazol-2-yl)-6-oxo-4-[[(3R)-piperidin-3-yl]amino]-1,6-dihydropyrimidin-2-yl]morpholine-2-carboxylate; trifluoroacetic acid] was run?
**A.** 6.74

**Q.** O=c1[nH]c(N2CCCCC2)nc(N[C@@H]2CCCNC2)c1-c1nc2ccccc2s1 [Example 309, 5-(1,3-benzothiazol-2-yl)-2-(piperidin-1-yl)-6-[[(3R)-piperidin-3-yl]amino]-3,4-dihydropyrimidin-4-one hydrochloride] was tested. Which pIC50 did it give?
**A.** 7.15

**Q.** With O=c1[nH]c(NCCO)nc(N[C@@H]2CCCNC2)c1-c1nc2ccccc2s1 [Example 311, 5-(1,3-benzothiazol-2-yl)-2-[(2-hydroxyethyl)amino]-6-[[(3R)-piperidin-3-yl]amino]-3,4-dihydropyrimidin-4-one; trifluoroacetic acid] as the compound, how does the pIC50 read?
**A.** 6.35

same assay, conditions: 100 μM ATP; read-out: IRAK4 IC50

**Q.** CS(=O)(=O)C1CN(c2nc(N[C@@H]3CCCNC3)c(-c3ccc4ccccc4n3)c(=O)[nH]2)C1 [Example 169, (R)-2-(3-(methylsulfonyl)azetidin-1-yl)-6-(piperidin-3-ylamino)-5-(quinolin-2-yl)pyrimidin-4(3H)-one] was tested. Which pIC50 did it give?
**A.** 7.49

**Q.** How did the pIC50 turn out when CC(C)(O)C1CN(c2nc(N[C@@H]3CCCNC3)c(-c3ccc4ccccc4n3)c(=O)[nH]2)C1 [Example 172, (R)-2-(3-(2-hydroxypropan-2-yl)azetidin-1-yl)-6-(piperidin-3-ylamino)-5-(quinolin-2-yl)pyrimidin-4(3H)-one] was run?
**A.** 7.38

**Q.** How did the pIC50 turn out when C[C@@H]1COCCN1c1nc(N[C@@H]2CCCNC2)c(-c2nc3ccccc3s2)c(=O)[nH]1 [Example 127] was run?
**A.** 5.77

**Q.** O=c1[nH]c(N2CCOCC2)nc(N[C@@H]2CCCNC2)c1-c1cncc(-n2cccc2)n1 [Example 198] was tested. Which pIC50 did it give?
**A.** 5.46

**Q.** O=c1[nH]c(N2CCOCC2)nc(N[C@@H]2CCCNC2)c1-c1nc2ccccc2o1 [Example 196] was tested. Which pIC50 did it give?
**A.** 5.74

same assay, conditions: unit inferred; 100 μM ATP; read-out: IRAK4 IC50

**Q.** How did the pIC50 turn out when O=c1[nH]c(N2CCC(c3cnccn3)CC2)nc(N[C@@H]2C[C@H](CO)[C@@H](O)[C@H]2O)c1-c1nc2ccccc2s1 [Example 69, 5-(benzo[d]thiazol-2-yl)-6-((1R,2S,3R,4R)-2,3-dihydroxy-4-(hydroxymethyl)cyclopentylamino)-2-(4-(pyrazin-2-yl)piperidin-1-yl)pyrimidin-4(3H)-one] was run?
**A.** 7.90

**Q.** O=c1[nH]c(N2CCC(c3ccncc3)CC2)nc(N[C@@H]2C[C@H](CO)[C@@H](O)[C@H]2O)c1-c1nc2ccccc2s1 [Example 72, 5-(benzo[d]thiazol-2-yl)-6-((1R,2S,3R,4R)-2,3-dihydroxy-4-(hydroxymethyl)cyclopentylamino)-2-(4-(pyridin-4-yl)piperidin-1-yl)pyrimidin-4(3H)-one] was tested. Which pIC50 did it give?
**A.** 7.72

**Q.** O=c1[nH]c(N2CCc3ccncc3C2)nc(N[C@@H]2C[C@H](CO)[C@@H](O)[C@H]2O)c1-c1nc2ccccc2s1 [Example 65, 5-(benzo[d]thiazol-2-yl)-2-(3,4-dihydro-2,7-naphthyridin-2(1H)-yl)-6-((1R,2S,3R,4R)-2,3-dihydroxy-4-(hydroxymethyl)cyclopentylamino)pyrimidin-4(3H)-one] was tested. Which pIC50 did it give?
**A.** 8.14
